The values that follow come from patent publication US7144585B1, “Cilostazol preparation” (Otsuka Pharmaceutical Co., Ltd., priority 1999, dated 2006).

Like-named read-outs stand apart in the source and are kept apart here.

The nature of data set [1]: Absorption test at upper and lower portions of the digestive tract (Test Example 8). It is filed as in vivo. Particulars: rats; for AUC: read-out: AUCO-2 hr. Here is the method: (§1) Preparations of Examples 1, 2, 4 and 5 and Comparative Example 1 were directly administered in a large intestine loop of female rats (3 or 4 rats per group) in the amount of 100 mg/kg calculated on the basis of cilostazol (CLZ). Then, blood was collected with a lapse of time and cilostazol concentration in blood was measured. An average cilostazol concentration in blood is shown in Table 10 and pharmacokinetic parameters after administration are shown in Table 11.
Absorption Test of Slightly Soluble Drug at Upper and Lower Portions of the Digestive Tract.
In the same manner as in Test Example 1, preparations of Example 2 and Comparative Examples 1 and 5 were directly administered in the duodenum and the large intestine of rats. Then, blood was collected with a lapse of time and cilostazol concentration in blood was measured.

Data set [2] can be described thus: Absorption test of cilostazol into the large intestine (Test Example 1). It is filed as in vivo, rats. Here is the method:
Absorption Test of Cilostazol into the Large Intestine
as §1

Data set [3] in a line: Cilostazol dissolution test, Paddle method, 0.3% SLS (Test Example 2). It is filed as physicochemical. Here is the method: Preparations of Examples 1, 2 and 4 and Comparative Example 1 were weighed in the amount of 100 mg calculated on the basis of cilostazol and subjected to a dissolution test under the following conditions. To evaluate the dissolution rate, the dissolution percentage was compared after two minutes had passed since the beginning of the test.
Conditions of Dissolution Test
Dissolution test solution: 900 mL of aqueous 0.3% sodium lauryl sulfate solution
Amount of sample: amount corresponding to 100 mg of cilostazol per vessel

[4] abbreviates: rat, blood, female rats, large intestine loop, 100 mg/kg as CLZ.
Setting [5] is: directly administered in the duodenum.

Take `O=C1CCc2cc(OCCCCc3nnnn3C3CCCCC3)ccc2N1` [Comp. Example 1, cilostazol]: in data set [1] (female, rat, blood, 100 mg/kg, directly administered in the duodenum), the AUC is 2590 ng·h/mL. Besides, the highest concentration (Cmax) in data set [1] (female, rat, blood, 100 mg/kg, directly administered in the duodenum, read-out: Cmax) stood at 1900 ng/mL. In addition, the AUCO-2 hr in data set [1] (directly administered in the large intestine) turned out to be 186 ng·h/mL. In data set [2] (rat, blood, other: directly administered in a large intestine loop, female rats, direct administration in large intestine loop, 100 mg/kg as CLZ, time after administration 0 hr), the concentration at 0 hr came to 0 ng/mL. The molecule further came in with a concentration at 0.083 hr in data set [2] (rat, blood, other: directly administered in a large intestine loop, female rats, large intestine loop, 100 mg/kg as CLZ, 0.083 hr after administration) of 15 ng/mL. In data set [2] (rat, blood, other: directly administered in a large intestine loop, female rats, large intestine loop, 100 mg/kg as CLZ, 0.25 hr after administration), this molecule displayed a concentration at 0.25 hr of 26 ng/mL. This molecule also displayed a concentration at 0.5 hr in data set [2] (rat, blood, other: directly administered in a large intestine loop, female rats, large intestine loop, 100 mg/kg as CLZ, 0.5 hr after administration) of 51 ng/mL. In data set [2] (rat, blood, other: directly administered in a large intestine loop, female rats, large intestine loop, 100 mg/kg as CLZ, 1.0 hr after administration), this molecule had a concentration at 1 hr of 100 ng/mL. The same molecule showed a concentration at 2 hr in data set [2] (rat, blood, other: directly administered in a large intestine loop, female rats, large intestine loop, 100 mg/kg as CLZ, 2.0 hr after administration) of 170 ng/mL. Besides, in data set [2] (setting [4]), the concentration peaked (Cmax) at 170 ng/mL and the Tmax worked out at 2 h. In addition, the AUC(0-t) in data set [2] (rat, blood, female rats, large intestine loop, 100 mg/kg as CLZ, read-out: AUC0–2 hr) was found to be 186 ng·h/mL. The “blood concentration attained (in words)” value in data set [2] (rats, large intestine, within two hours after administration) is recorded as “sufficient blood concentration was not obtained”. Besides, in data set [3] (0.3% SLS, Paddle 75 rpm), the “dissolution rate / dissolution percentage (in words)” value is listed as “low dissolution rate”. In addition, the “Dissolution percentage after 2 minutes” value in data set [3] (900 mL aqueous 0.3% sodium lauryl sulfate, Paddle method 75 rpm, 100 mg cilostazol per vessel) turned out to be 22.7%.
With `O=C1CCc2cc(OCCCCc3nnnn3C3CCCCC3)ccc2N1` [Comp. Example 5, cilostazol], in data set [1] (female, rat, blood, 100 mg/kg, directly administered in the large intestine), the AUC came to 236 ng·h/mL. The Cmax in data set [1] (female, rat, blood, 100 mg/kg, directly administered in the large intestine, read-out: Cmax) is 168 ng/mL. In data set [1] (setting [5]), the AUCO-2 hr came to 3682 ng·h/mL and the Cmax is given as 3002 ng/mL.

A word on the Cmax: it is the maximum level reached in the sampled fluid or tissue. As a reminder, the Tmax is the time at which the peak concentration occurs.
